Laboratory results reported in patent US20260055079A1, “PHTHALAZINONE COMPOUNDS AS PARP7 INHIBITORS” (AZKARRA THERAPEUTICS, INC., priority 2022, published 2026).
pIC50: −log10 of the molar value. Like-named read-outs stand apart in the source and are kept apart here.

Legend:
[1] = target: His-GST-PARP7 (Homo sapiens (Human), UniProt Q7Z3E1); test: PARP7 biochemical assay; conditions: read-out: PARP7 IC50
[2] = target: PARP2 (Homo sapiens (Human), UniProt Q9UGN5); test: PARP2 biochemical assay
[3] = tested on: HARA (human lung squamous cell carcinoma) cells; test: Cell proliferation assay (CellTiter-Glo), HARA; assay type: cell-based; conditions: Homo sapiens, 144 h; 6 days, CellTiter-Glo; read-out: HARA GI50
[4] = tested on: NCI-H1373 (human lung adenocarcinoma) cells; test: Cell proliferation assay (CellTiter-Glo), NCI-H1373; assay type: cell-based; conditions: Homo sapiens, NCI-H1373, 144 h; 6 days, CellTiter-Glo; read-out: NCI-H1373 GI50

Sequence of PARP2 (Q9UGN5 whole entry): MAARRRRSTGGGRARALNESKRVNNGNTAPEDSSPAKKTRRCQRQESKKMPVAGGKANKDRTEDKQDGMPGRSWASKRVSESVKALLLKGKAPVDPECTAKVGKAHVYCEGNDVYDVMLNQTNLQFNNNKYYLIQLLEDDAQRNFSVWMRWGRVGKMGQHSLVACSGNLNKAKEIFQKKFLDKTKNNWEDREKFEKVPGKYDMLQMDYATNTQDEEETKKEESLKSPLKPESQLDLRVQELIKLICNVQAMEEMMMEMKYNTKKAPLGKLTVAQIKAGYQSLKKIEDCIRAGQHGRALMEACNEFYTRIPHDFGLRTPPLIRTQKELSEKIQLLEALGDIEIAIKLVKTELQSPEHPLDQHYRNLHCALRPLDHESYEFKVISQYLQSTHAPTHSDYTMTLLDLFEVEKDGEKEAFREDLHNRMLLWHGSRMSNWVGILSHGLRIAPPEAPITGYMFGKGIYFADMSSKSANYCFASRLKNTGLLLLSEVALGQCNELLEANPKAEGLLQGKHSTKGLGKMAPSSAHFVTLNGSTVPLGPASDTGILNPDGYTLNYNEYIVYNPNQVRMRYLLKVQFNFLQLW
Sequence of His-GST-PARP7 (Q7Z3E1 whole entry): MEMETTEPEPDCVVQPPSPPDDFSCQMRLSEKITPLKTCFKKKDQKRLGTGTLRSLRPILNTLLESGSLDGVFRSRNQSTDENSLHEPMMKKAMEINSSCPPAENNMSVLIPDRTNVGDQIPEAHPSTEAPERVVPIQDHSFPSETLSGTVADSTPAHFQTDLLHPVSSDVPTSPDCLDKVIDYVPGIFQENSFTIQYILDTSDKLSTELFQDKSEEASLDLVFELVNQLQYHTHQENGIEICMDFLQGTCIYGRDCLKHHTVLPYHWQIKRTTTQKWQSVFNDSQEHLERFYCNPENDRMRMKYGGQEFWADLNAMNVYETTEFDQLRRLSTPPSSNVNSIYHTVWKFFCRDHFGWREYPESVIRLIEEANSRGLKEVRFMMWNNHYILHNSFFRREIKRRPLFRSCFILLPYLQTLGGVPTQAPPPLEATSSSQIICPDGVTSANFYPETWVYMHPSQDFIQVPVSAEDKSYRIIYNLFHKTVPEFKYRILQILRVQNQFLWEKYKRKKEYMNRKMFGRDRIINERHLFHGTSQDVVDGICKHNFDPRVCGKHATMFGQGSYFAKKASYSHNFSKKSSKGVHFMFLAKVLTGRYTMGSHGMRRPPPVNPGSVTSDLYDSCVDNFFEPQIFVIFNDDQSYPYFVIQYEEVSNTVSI

Row | Compound | pIC50 [1] | pIC50 ([2]; read-out: PARP2 IC50) | pIC50 [2] | GI50 [3] | GI50 [4]
1 | 4-(4-Fluoro-3-(4-(5-(trifluoromethyl)pyrimidin-2-yl)piperazine-1-carbonyl)benzyl)-6-isobutylphthalazin-1(2H)-one [Example 44] | > 7.30 | 7.00 to 7.30 | – | – | –
2 | 6-(4-(2-Fluoro-5-((4-oxo-7-(prop-2-yn-1-yloxy)-3,4-dihydrophthalazin-1-yl)methyl)benzoyl)piperazin-1-yl)nicotinonitrile [Example 26] | > 7.30 | 6.30 to 7.00 | – | – | –
3 | N#Cc1ccc(N2CCN(C(=O)c3cc(Cc4n[nH]c(=O)c5ccc(N6CC(F)(F)C6)cc45)ccc3F)CC2)nc1 [Example 18, 6-(4-(5-((7-(3,3-Difluoroazetidin-1-yl)-4-oxo-3,4-dihydrophthalazin-1-yl)methyl)-2-fluorobenzoyl)piperazin-1-yl)nicotinonitrile] | > 7.30 | 6.30 to 7.00 | – | – | –
4 | N#Cc1ccc(N2CCN(C(=O)c3cc(Cc4n[nH]c(=O)c5ccc(C#CC(F)(F)F)cc45)ccc3F)CC2)nc1 [Example 24, 6-(4-(2-Fluoro-5-((4-oxo-7-(3,3,3-trifluoroprop-1-ynyl)-3,4-dihydrophthalazin-1-yl)methyl)benzoyl)piperazin-1-yl)nicotinonitrile] | > 7.30 | 6.30 to 7.00 | – | – | –
5 | N#Cc1ccc(N2CCN(C(=O)c3cc(Cc4n[nH]c(=O)c5ccc(CCC(F)(F)F)cc45)ccc3F)CC2)nc1 [Example 25, 6-(4-(2-Fluoro-5-((4-oxo-7-(3,3,3-trifluoropropyl)-3,4-dihydrophthalazin-1-yl)methyl)benzoyl)piperazin-1-yl)nicotinonitrile] | – | 6.30 to 7.00 | – | – | –
6 | N#Cc1ccc(N2CCN(C(=O)c3cc(Cc4n[nH]c(=O)c5ccc(/C=C/C(F)(F)F)cc45)ccc3F)CC2)nc1 [Example 27, (E)-6-(4-(2-Fluoro-5-((4-oxo-7-(3,3,3-trifluoroprop-1-enyl)-3,4-dihydrophthalazin-1-yl)methyl)benzoyl)piperazin-1-yl)nicotinonitrile] | – | – | 7.00 to 7.30 | – | –
7 | N#Cc1ccc(N2CCN(C(=O)c3cc(Cc4n[nH]c(=O)c5ccc(C#CC6CC6)cc45)ccc3F)CC2)nc1 [Example 37, 6-(4-(5-((7-(Cyclopropylethynyl)-4-oxo-3,4-dihydrophthalazin-1-yl)methyl)-2-fluorobenzoyl)piperazin-1-yl)nicotinonitrile] | 6.30 to 7.00 | 5.70 to 6.30 | – | – | –
8 | N#Cc1ccc(N2CCN(C(=O)c3cc(Cc4n[nH]c(=O)c5ccc(C6CC6)cc45)ccc3F)CC2)nc1 [Example 40, 6-(4-(5-((7-Cyclopropyl-4-oxo-3,4-dihydrophthalazin-1-yl)methyl)-2-fluorobenzoyl)piperazin-1-yl)nicotinonitrile] | > 7.30 | 6.30 to 7.00 | – | – | –
9 | CC(C)(C)Cc1ccc2c(=O)[nH]nc(Cc3ccc(F)c(C(=O)N4CCN(c5ccc(C#N)cn5)CC4)c3)c2c1 [Example 41, 6-(4-(2-Fluoro-5-((7-neopentyl-4-oxo-3,4-dihydrophthalazin-1-yl)methyl)benzoyl)piperazin-1-yl)nicotinonitrile] | 6.30 to 7.00 | 6.30 to 7.00 | – | – | –
10 | CCc1ccc2c(=O)[nH]nc(Cc3ccc(F)c(C(=O)N4CCN(c5ncc(C(F)(F)F)cn5)CC4)c3)c2c1 [Example 43, 6-Ethyl-4-(4-fluoro-3-(4-(5-(trifluoromethyl)pyrimidin-2-yl)piperazine-1-carbonyl)benzyl)phthalazin-1(2H)-one] | – | 6.30 to 7.00 | – | – | –
11 | O=C(c1cc(Cc2n[nH]c(=O)c3ccc(C4CC4)cc23)ccc1F)N1CCN(c2ncc(C(F)(F)F)cn2)CC1 [Example 45, 6-Cyclopropyl-4-(4-fluoro-3-(4-(5-(trifluoromethyl)pyrimidin-2-yl)piperazine-1-carbonyl)benzyl)phthalazin-1(2H)-one] | > 7.30 | 6.30 to 7.00 | – | – | –
12 | Cc1nc(N2CCN(C(=O)c3cc(Cc4n[nH]c(=O)c5ccc(OC6CCC6)cc45)ccc3F)CC2)ccc1C#N [Example 133, 6-(4-(5-((7-cyclobutoxy-4-oxo-3,4-dihydrophthalazin-1-yl)methyl)-2-fluorobenzoyl)piperazin-1-yl)-2-methylnicotinonitrile] | > 7.30 | – | – | > 5 µM | 0.1 to 1 µM
13 | Cc1cc(N2CCN(C(=O)c3cc(Cc4n[nH]c(=O)c5ccc(OC6CCC6)cc45)ccc3F)CC2)ncc1C#N [Example 134, 6-(4-(5-((7-cyclobutoxy-4-oxo-3,4-dihydrophthalazin-1-yl)methyl)-2-fluorobenzoyl)piperazin-1-yl)-4-methylnicotinonitrile] | > 7.30 | – | – | 0.1 to 1 µM | < 0.1 µM
14 | COc1nc(N2CCN(C(=O)c3cc(Cc4n[nH]c(=O)c5ccc(OC6CCC6)cc45)ccc3F)CC2)ccc1C#N [Example 136, 6-(4-(5-((7-cyclobutoxy-4-oxo-3,4-dihydrophthalazin-1-yl)methyl)-2-fluorobenzoyl)piperazin-1-yl)-2-methoxynicotinonitrile] | 7.00 to 7.30 | – | – | > 5 µM | 0.1 to 1 µM
15 | O=C(c1cc(Cc2n[nH]c(=O)c3ccc(OC4CCC4)cc23)ccc1F)N1CCN(c2ccc(C(F)(F)F)cn2)CC1 [Example 155, 6-cyclobutoxy-4-(4-fluoro-3-(4-(5-(trifluoromethyl)pyridin-2-yl)piperazine-1-carbonyl)benzyl)phthalazin-1(2H)-one] | > 7.30 | – | – | 1 to 5 µM | < 0.1 µM
16 | O=C(c1cc(Cc2n[nH]c(=O)c3ccc(OC4CCC4)cc23)ccc1F)N1CCN(c2cnc(C(F)(F)F)cn2)CC1 [Example 160, 6-cyclobutoxy-4-(4-fluoro-3-(4-(5-(trifluoromethyl)pyrazin-2-yl)piperazine-1-carbonyl)benzyl)phthalazin-1(2H)-one] | > 7.30 | – | – | 1 to 5 µM | < 0.1 µM
17 | O=C(c1cc(Cc2n[nH]c(=O)c3ccc(OC4CCC4)cc23)ccc1F)N1CCN(c2ncc(C3CC3)cn2)CC1 [Example 162, 6-cyclobutoxy-4-(3-(4-(5-cyclopropylpyrimidin-2-yl)piperazine-1-carbonyl)-4-fluorobenzyl)phthalazin-1(2H)-one] | > 7.30 | – | – | 0.1 to 1 µM | < 0.1 µM
18 | CC(CC(=O)N1CCN(c2ccc(C#N)cn2)CC1)NCc1n[nH]c(=O)c2ccc(OC3CC3)cc12 (stereo not shown) [Example 196, 6-(4-(3-(((7-Cyclopropoxy-4-oxo-3,4-dihydrophthalazin-1-yl)methyl)amino)butanoyl)piperazin-1-yl)nicotinonitrile] | > 7.30 | – | – | 1 to 5 µM | 1 to 5 µM
19 | N#Cc1ccc(N2CCN(c3noc4c(Cc5n[nH]c(=O)c6ccc(OC7CCC7)cc56)cccc34)CC2)nc1 [Example 208, 6-(4-(7-((7-Cyclobutoxy-4-oxo-3,4-dihydrophthalazin-1-yl)methyl)benzo[d]isoxazol-3-yl)piperazin-1-yl)nicotinonitrile] | 6.30 to 7.00 | – | – | 1 to 5 µM | 1 to 5 µM
20 | N#Cc1ccc(N2CCN(c3noc4ccc(Cc5n[nH]c(=O)c6ccc(OC7CCC7)cc56)cc34)CC2)nc1 [Example 211, 6-(4-(5-((7-cyclobutoxy-4-oxo-3,4-dihydrophthalazin-1-yl)methyl)benzo[d]isoxazol-3-yl)piperazin-1-yl)nicotinonitrile] | 6.30 to 7.00 | – | – | 1 to 5 µM | 1 to 5 µM
